ChEMBL document CHEMBL1201862, “PubChem BioAssay data set” (2004)
One block for each molecule: values may come before it. The source made the active and inactive calls.

Tests used:
Kallikrein-7 = Kallikrein-7 (Homo sapiens, UniProt P49862); assay: Fluorescence Intensity-based biochemical primary high throughput dose response assay to identify activators of kallikrein-7 (K7) zymogen.
[1] = target: T1, Mannose-6-phosphate isomerase (Homo sapiens, UniProt P34949); assay: MPI inhibition at elevated mannose 6-phosphate – biochemical, fluorescence intensity, high mannose 6-phosphate, primary screen (AID 1220)
T1 sequence (P34949 whole entry): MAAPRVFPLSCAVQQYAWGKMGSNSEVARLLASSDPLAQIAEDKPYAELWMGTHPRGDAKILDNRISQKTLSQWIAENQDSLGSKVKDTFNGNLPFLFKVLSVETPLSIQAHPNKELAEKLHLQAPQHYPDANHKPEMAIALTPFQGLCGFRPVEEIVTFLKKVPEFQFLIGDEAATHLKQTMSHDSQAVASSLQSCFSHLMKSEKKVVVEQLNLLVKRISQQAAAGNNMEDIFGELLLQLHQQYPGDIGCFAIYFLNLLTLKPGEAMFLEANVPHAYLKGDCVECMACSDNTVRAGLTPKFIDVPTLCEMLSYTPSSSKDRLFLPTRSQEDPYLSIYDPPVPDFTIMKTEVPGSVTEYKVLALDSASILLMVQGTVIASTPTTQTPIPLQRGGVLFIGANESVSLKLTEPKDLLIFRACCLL

[2] = target: T2, E3 ubiquitin-protein ligase XIAP (Homo sapiens, UniProt P98170); assay: small molecules displacing peptide from XIAP – biochemical, IAP family, fluorescence polarization (AID 1018); format: functional
T2 sequence (P98170 whole entry): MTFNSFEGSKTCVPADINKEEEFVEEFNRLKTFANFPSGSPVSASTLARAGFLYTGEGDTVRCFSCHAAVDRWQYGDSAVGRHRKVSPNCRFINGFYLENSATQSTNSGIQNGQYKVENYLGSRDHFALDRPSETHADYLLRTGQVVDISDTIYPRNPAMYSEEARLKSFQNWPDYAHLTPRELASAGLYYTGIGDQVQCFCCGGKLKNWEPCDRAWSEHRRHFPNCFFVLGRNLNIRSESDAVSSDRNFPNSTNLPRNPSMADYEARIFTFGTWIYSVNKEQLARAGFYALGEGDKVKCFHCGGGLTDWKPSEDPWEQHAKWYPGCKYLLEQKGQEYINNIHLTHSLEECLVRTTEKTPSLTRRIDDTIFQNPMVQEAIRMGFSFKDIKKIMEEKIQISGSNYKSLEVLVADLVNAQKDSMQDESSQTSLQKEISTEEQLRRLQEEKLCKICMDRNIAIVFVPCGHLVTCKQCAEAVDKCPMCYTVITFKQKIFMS

[3] = target: T2, E3 ubiquitin-protein ligase XIAP; assay: Counter Screen using XIAP-Bir3 for Chemical Antagonists of Bir1/2 domains of IAP-family anti-apoptotic proteins. [Related pubchem assays (depositor defined):AID1018, AID1449, AID1514, AID1638, AID1749, AID1750, AID488957, AID488963]
[4] = mitochondrial function rescue without frataxin homolog – Friedreich's ataxia, plus single-dose screen, dose response (AID 1465); format: functional;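 note: yeast depleted of Yfh1p frataxin homolog grown on glycerol needing respiration; WST-1 tetrazolium dye reduction as measure of cellular dehydrogenase metabolic activity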
[5] = target: T3, 1-phosphatidylinositol 4,5-bisphosphate phosphodiesterase gamma-1 (Homo sapiens, UniProt P19174); assay: Counterscreen for inhibitors of phospholipase C isozymes (PLC-B3): Fluorescence-based biochemical high throughput dose response assay to identify inhibitors of phospholipase C isozymes (PLC-gamma1).
T3 sequence (P19174 whole entry): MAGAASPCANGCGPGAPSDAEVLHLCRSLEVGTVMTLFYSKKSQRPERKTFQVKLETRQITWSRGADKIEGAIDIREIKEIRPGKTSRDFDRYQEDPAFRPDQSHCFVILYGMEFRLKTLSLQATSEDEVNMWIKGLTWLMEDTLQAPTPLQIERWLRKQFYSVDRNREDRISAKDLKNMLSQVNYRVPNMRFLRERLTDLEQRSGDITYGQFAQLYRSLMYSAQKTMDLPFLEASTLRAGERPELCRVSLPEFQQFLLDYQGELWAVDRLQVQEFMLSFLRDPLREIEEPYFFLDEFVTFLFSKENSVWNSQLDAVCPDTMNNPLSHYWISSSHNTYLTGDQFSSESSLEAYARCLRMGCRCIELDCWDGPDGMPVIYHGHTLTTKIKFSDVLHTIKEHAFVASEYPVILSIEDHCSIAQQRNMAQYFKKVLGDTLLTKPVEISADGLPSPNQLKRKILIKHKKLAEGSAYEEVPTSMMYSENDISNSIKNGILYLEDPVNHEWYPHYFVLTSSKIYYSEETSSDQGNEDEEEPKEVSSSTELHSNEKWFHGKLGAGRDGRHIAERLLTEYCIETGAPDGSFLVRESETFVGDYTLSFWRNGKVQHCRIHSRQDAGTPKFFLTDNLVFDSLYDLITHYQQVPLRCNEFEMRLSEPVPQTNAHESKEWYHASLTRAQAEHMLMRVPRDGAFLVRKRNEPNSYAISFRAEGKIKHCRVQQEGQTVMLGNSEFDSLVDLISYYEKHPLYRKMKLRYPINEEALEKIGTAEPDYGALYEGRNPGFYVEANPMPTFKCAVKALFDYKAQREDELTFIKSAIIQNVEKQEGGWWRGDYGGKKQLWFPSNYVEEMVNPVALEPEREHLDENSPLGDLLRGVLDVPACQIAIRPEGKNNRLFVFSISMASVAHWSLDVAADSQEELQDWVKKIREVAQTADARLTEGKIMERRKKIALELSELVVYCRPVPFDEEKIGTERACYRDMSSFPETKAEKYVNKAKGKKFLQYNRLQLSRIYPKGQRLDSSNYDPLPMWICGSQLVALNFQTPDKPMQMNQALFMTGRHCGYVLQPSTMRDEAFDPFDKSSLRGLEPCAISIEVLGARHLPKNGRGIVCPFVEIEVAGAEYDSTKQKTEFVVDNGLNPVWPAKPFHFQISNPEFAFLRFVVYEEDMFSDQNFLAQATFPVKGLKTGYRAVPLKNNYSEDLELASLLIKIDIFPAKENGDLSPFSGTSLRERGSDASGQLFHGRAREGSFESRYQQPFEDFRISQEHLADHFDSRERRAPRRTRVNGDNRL

[6] = target: T4, 1-phosphatidylinositol 4,5-bisphosphate phosphodiesterase beta-3 (Homo sapiens, UniProt Q01970); assay: Fluorescence-based biochemical high throughput dose response assay to identify inhibitors of phospholipase C isozymes (PLC-B3).
T4 sequence (Q01970 whole entry): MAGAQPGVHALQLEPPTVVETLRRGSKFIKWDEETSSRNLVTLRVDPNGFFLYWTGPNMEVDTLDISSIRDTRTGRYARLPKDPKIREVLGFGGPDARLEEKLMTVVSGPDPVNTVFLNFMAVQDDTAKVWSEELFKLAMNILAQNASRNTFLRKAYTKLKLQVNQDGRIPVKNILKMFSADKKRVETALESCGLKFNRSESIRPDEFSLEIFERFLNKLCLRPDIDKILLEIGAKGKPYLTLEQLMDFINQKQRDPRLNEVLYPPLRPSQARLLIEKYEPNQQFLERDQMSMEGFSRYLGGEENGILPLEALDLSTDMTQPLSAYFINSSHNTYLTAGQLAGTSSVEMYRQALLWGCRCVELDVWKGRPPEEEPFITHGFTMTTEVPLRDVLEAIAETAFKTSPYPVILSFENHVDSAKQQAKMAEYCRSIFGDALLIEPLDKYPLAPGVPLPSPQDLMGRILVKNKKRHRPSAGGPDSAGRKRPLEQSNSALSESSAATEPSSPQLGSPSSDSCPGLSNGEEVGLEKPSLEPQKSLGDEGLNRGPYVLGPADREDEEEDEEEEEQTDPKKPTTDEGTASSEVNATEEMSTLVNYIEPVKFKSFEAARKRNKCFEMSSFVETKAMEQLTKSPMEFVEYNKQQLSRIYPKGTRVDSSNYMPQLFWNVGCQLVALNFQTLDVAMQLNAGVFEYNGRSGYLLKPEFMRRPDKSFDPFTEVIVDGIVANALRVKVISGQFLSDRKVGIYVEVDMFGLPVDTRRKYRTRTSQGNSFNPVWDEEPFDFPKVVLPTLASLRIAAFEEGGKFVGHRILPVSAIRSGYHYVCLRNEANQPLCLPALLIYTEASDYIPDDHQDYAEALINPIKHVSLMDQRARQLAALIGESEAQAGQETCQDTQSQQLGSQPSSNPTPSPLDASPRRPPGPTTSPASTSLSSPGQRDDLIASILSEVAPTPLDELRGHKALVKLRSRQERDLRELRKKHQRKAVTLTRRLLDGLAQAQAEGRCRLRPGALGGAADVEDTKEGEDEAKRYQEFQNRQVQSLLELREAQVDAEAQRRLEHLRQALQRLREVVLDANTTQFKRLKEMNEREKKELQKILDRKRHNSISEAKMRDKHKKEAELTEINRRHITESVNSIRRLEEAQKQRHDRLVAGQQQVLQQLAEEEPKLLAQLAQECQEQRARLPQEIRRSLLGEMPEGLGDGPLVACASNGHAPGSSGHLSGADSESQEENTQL

Cytochrome P450 3A4 = Cytochrome P450 3A4 (Homo sapiens, UniProt P08684);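 note: CYP3A4 tested as one member of a cytochrome P450 panel screen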
Cytochrome P450 3A4, sequence (P08684 whole entry): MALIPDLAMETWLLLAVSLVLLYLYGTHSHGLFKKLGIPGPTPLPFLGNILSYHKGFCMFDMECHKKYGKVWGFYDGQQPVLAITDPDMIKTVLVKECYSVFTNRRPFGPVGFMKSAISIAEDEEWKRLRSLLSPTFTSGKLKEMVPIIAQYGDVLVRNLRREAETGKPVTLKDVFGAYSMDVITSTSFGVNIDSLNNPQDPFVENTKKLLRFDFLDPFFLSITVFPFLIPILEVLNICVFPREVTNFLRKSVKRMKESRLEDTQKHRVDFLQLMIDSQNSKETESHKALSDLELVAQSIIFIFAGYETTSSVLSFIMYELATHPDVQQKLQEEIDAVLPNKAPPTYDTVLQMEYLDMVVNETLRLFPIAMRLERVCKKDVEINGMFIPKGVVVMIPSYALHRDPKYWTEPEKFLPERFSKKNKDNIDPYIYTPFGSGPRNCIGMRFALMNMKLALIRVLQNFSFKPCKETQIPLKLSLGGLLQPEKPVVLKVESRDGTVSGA

Cytochrome P450 2C9 = Cytochrome P450 2C9 (Homo sapiens, UniProt P11712)
Cytochrome P450 2C9, sequence (P11712 whole entry): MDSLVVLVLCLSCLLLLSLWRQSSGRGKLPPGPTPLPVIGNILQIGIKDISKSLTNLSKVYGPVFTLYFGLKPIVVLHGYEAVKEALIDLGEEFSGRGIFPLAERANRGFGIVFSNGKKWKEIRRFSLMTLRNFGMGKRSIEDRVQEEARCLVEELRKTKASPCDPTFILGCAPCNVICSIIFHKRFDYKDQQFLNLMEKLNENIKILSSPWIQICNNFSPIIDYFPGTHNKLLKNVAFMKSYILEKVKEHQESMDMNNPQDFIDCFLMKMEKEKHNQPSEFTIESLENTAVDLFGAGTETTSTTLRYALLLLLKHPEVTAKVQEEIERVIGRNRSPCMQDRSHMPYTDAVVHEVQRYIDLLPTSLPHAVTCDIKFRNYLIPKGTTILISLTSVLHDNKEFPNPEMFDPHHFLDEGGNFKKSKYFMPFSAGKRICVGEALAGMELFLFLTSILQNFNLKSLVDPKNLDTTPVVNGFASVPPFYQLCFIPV

[7] = target: T5, Histone-lysine N-methyltransferase NSD2 (Homo sapiens, UniProt O96028); format: biochemical
T5 sequence (O96028 whole entry): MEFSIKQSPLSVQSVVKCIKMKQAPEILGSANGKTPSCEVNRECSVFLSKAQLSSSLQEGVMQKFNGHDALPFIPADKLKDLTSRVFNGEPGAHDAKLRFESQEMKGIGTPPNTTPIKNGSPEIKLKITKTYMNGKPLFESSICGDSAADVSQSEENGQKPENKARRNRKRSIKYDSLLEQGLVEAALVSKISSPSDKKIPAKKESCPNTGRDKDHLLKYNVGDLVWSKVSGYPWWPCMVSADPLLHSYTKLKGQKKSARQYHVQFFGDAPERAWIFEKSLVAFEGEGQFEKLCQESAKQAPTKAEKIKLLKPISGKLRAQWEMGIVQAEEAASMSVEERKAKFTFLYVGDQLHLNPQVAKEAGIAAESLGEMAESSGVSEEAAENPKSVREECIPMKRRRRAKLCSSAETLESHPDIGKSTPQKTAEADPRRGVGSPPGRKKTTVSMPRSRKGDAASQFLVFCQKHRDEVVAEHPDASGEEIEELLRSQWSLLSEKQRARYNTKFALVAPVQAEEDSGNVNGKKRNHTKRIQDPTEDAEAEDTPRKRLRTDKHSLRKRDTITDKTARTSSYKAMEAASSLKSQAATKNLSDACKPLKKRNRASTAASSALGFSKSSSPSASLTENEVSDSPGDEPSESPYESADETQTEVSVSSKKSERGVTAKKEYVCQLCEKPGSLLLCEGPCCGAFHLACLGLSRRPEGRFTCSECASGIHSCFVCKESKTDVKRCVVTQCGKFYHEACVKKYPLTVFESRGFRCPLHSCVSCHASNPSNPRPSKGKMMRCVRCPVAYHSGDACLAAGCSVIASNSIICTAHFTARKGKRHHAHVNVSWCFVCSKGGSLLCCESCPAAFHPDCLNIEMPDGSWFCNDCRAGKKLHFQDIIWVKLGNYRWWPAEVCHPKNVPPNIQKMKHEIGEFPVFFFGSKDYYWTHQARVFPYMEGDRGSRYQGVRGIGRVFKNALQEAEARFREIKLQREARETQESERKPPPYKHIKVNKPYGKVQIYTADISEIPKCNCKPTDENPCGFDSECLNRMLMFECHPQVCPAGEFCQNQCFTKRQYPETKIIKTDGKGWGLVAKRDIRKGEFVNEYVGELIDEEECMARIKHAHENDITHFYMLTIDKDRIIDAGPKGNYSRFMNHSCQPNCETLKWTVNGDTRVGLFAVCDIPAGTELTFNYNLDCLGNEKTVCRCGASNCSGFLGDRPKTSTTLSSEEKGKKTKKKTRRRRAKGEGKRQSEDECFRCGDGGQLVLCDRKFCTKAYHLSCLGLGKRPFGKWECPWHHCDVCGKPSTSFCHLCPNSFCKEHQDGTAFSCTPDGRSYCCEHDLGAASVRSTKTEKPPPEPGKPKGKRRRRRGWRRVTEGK

[8] = Dd2 malaria parasite growth inhibition potency – SYBR Green, dry powder samples, dose response (AID 1159566); format: functional, cell-based;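 note: potency for growth inhibition with lower SYBR green DNA signal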
[9] = P. falciparum Dd2 growth inhibitors, dose response, SYBR Green, cherry-picked samples (AID 1159567); format: functional, cell-based
[10] = growth inhibition of yeast DHODH-expressing 3D7 parasites – SYBR Green, dry powder samples, dose response (AID 1159570); format: functional, cell-based;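 note: parasite growth measured after 72 hours of compound exposure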
[11] = toxicity to human HepG2 hepatoma cells – cell-based, plate reader, dry powder samples, cytotoxicity control, dose response (AID 1159569); format: functional;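 note: inhibitor potency with signal falling toward the positive control level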
[12] = growth inhibition of PfATP4-mutant resistant parasites – NITD609-resistant line, SYBR Green, dry powder, dose response (AID 1159571); format: functional, cell-based;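 note: parasites synchronized at ring stage by sorbitol before testing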

Kallikrein-7, sequence (P49862 whole entry): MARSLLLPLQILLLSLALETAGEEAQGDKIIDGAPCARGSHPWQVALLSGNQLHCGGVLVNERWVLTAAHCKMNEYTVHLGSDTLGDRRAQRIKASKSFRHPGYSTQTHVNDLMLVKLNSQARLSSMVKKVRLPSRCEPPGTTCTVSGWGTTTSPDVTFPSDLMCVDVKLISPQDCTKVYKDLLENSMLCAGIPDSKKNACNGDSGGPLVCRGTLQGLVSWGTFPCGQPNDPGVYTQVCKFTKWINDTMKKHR

SMILES: O=C(C[C@H]1C[C@H](C(=O)N2CCCCC2)[C@@]2(CCc3ccccc3)c3[nH]c4cc(-c5ccco5)ccc4c3CCN2C1=O)NCCN1CCOCC1
EC50 (Kallikrein-7): 8.82 µM (active)

SMILES: O=[N+]([O-])c1ccc(N2CCCC2)cc1N/N=C1\CN2CCC1CC2
EC50 [4]: > 100 µM (active)

SMILES: COc1ccc(S(=O)(=O)N2CCCC2)c(C)c1C
IC50 [2]: > 100 µM (not active)
IC50 [3]: > 100 µM (inactive)

SMILES: Oc1c2nc3ccccc3c-2ncn1CCN1CCOCC1
IC50 [5]: > 122 µM (inactive)
IC50 [6]: > 122 µM (inactive)

SMILES: O=C(Nc1ccc(F)cc1)N1CCCCN2[C@H](CO)[C@H](c3ccc(C#Cc4ccccc4)cc3)[C@@H]2C1
AC50 [8]: 0.0167 µM (active)
AC50 [9]: < 0.3 µM (active)
AC50 [10]: 0.0201 µM (active)
AC50 [11]: 80.3 µM (active)
AC50 [12]: 0.0214 µM (active)

SMILES: COc1ccc2c3c(n(C)c2c1)[C@H](CO)N(C(=O)Nc1ccc(F)cc1)CC31CCN(C)CC1
AC50 [8]: 2.87 µM (active)
AC50 [9]: 2.67 µM (active)
AC50 [10]: 4.11 µM (active)
AC50 [11]: 54.1 µM (active)
AC50 [12]: 4.61 µM (active)

Further lines, results first:

IC50 [1]: > 50 µM (not active)
SMILES: Cc1ccc(O)c(/N=C/c2ccc(C)s2)c1

IC50 [2]: > 100 µM (not active)
IC50 [3]: > 100 µM (inactive)
SMILES: O=C(c1ccc(S(=O)(=O)NCC2CCCO2)cc1)N1CCN(c2cccc(Cl)c2)CC1 (stereo unspecified)

EC50 (Kallikrein-7): 9.46 µM (active)
AC50 (Cytochrome P450 3A4): 31.6 µM (inconclusive)
AC50 (Cytochrome P450 2C9): inconclusive
SMILES: C=CCNc1sc(C(=O)c2ccc(C)cc2)c(N)c1C#N

IC50 [2]: > 100 µM (not active)
IC50 [3]: > 100 µM (inactive)
AC50 [7]: > 20 µM (inactive)
SMILES: CCN(CC)CCNC(=O)/C(=C\c1cccn1C)NC(=O)c1cccs1

EC50 (Kallikrein-7): 8.31 µM (active)
SMILES: COc1cc(NC(=O)COc2ccccc2Cl)ccc1NC(=O)c1cccs1
